Results taken from publication PMC10035389, “Safety, Tolerability, and Pharmacokinetics of TAK-931, a Cell Division Cycle 7 Inhibitor, in Patients with Advanced Solid Tumors: A Phase I First-in-Human Study” (Cancer Research Communications, 2022).

Tested on: patients with advanced solid tumors
Experiment: Safety and tolerability (adverse events, NCI CTCAE v4.03), phase I dose-escalation study
Type: in vivo, human
Description: This was a phase I, open-label, dose-escalation study of single-agent TAK-931. Dose escalation of TAK-931 was cohort based with an adaptive design using Bayesian logistic regression modeling (BLRM) with pharmacokinetic guidance. BLRM also guided MTD estimation from the second dose. Patients were enrolled in one of four dosing schedules (A, B, D, or E; Supplementary Fig. S1) to receive TAK-931. Two additional schedules were planned (C and F) but no patients were enrolled. Schedule A included an initial accelerated escalation phase. TAK-931 was administered once daily for 14 days in 21-day cycles starting at 30 mg, which doubled until a cycle 1 dose-limiting toxicity (DLT) was observed, when 2 patients experienced grade ≥2 treatment-related toxicity, or when maximum geometric mean plasma concentration (Cmax) for the cohort reached or exceeded 800 ng/mL [threshold for off-target adverse effects (hypotension) in animal toxicology studies]; then dose escalation transitioned to modified Fibonacci escalation steps. In schedule B (based on experience with schedule A), patients received TAK-931 once daily or twice daily for 7 days on, 7 days off in a 28-day cycle starting at 60 mg. In schedule D, patients received TAK-931 once daily starting at 20 mg in 21-day cycles; BLRM was not applied but further adjustments were dependent on observed safety, pharmacokinetics, and pharmacodynamics. In schedule E, patients received TAK-931 once daily for 2 days on, 5 days off starting at 100 mg in 21-day cycles. A safety expansion was permitted once MTD had been determined. Prophylactic growth factors were permitted in all schedules to manage severe and/or febrile neutropenia. TAK-931 treatment continued until unacceptable toxicity, disease progression, or patient withdrawal.
DLTs included: cycle 1 grade ≥3 hematologic and non-hematologic events or grade 2 non-hematologic events considered by the investigator to be TAK-931-related, grade 2 ejection fraction decrease, >2 weeks delay in initiating cycle 2 (1 week for schedules D and E), and >50% TAK-931 dose reduction in cycle 1 due to treatment-related adverse events (AEs; see Supplementary Materials and Methods for full DLT criteria). Toxicity was evaluated by NCI Common Terminology Criteria for Adverse Events (version 4.03). Tumor response was measured using the RECIST (version 1.1) ([16]). Serial blood samples for pharmacokinetic analysis were collected during cycle 1 on days 1 and 7 (schedule B), 1 and 8 (schedules A and D), or 1 and 9 (schedule E). Pharmacokinetic parameters were estimated from concentration–time profiles using noncompartmental methods with WinNonlin® Phoenix™ version 8.1 (Certara, Princeton, NJ). pMCM2 was detected semiquantitatively by IHC of histologic sections of formalin-fixed, paraffin-embedded skin and tumor biopsies using anti-pMCM2 (3378-1, Epitomics Inc.; ref. [15]). Quantitative image analysis determined pMCM2 levels as “histologic score nuclei (H-score).” Skin punch biopsies (2–4 mm) were obtained during screening or predose on cycle 1, day 1 and for patients in schedules A, B, and D, postdose on any drug dosing day after 3 consecutive dosing days in cycle 1. A postdose skin biopsy was obtained on day 9 in schedule E. Fresh tumor biopsy pairs were collected predose and postdose on any dosing day after the completion of 3 consecutive dosing days in cycle 1 from patients who received doses considered to have biological effect.
The safety population included patients who received ≥1 dose of TAK-931. The pharmacodynamic-evaluable population comprised patients from the safety population with a baseline and ≥1 additional postbaseline biopsy sample that was suitable for pMCM2 analysis. The pharmacokinetic-evaluable population included patients with sufficient dosing and TAK-931 concentration–time data to estimate pharmacokinetic parameters. […]

[1] = Schedule D (continuous once daily) n = 18
[2] = Schedule E (2 days on, 5 days off) n = 13
[3] = all schedules, N = 80, all grade 1/2

With `Cc1[nH]ncc1-c1cc2nc([C@@H]3CC4CCN3CC4)[nH]c(=O)c2s1` [TAK-931, simurosertib] the “Rash popular, AE any grade” value [1] was 2 (11) n (%), the “Stomatitis, AE any grade” value [1] was 0 (0) n (%) and the “Thrombocytopenia, AE any grade” value [1] was 0 (0) n (%). The “Tumor pain, AE any grade” value [1] was 1 (6) n (%), the “Vomiting, AE any grade” value [1] was 2 (11) n (%) and the “White blood cell count decreased, AE any grade” value [1] was 7 (39) n (%). For the same compound, the “White blood cell count decreased, grade ≥3 AE” value [1] was 2 (11) n %, the “Abdominal pain, AE any grade” value [2] was 0 (0) n (%) and the “Alopecia, AE any grade” value [2] was 4 (31) n (%). For the same compound, the “Anemia, AE any grade” value [2] was 6 (46) n (%), the “Anemia, grade ≥3 AE” value [2] was 5 (38) n % and the “Arthralgia, AE any grade” value [2] was 1 (8) n (%). For the same compound, the “Blood creatinine increased, AE any grade” value [2] was 0 (0) n (%), the “Constipation, AE any grade” value [2] was 1 (8) n (%) and the “Cough, AE any grade” value [2] was 0 (0) n (%). For the same compound, the “Decreased appetite, AE any grade” value [2] was 5 (38) n (%), the “Decreased appetite, grade ≥3 AE” value [2] was 0 (0) n % and the “Diarrhea, AE any grade” value [2] was 3 (23) n (%). For the same compound, the “Dry skin, AE any grade” value [2] was 3 (23) n (%), the “Edema peripheral, AE any grade” value [2] was 3 (23) n (%) and the “Electrocardiogram QT prolonged, AE any grade” value [2] was 1 (8) n (%). The “Fall, AE any grade” value [2] was 2 (15) n (%), the “Fatigue, AE any grade” value [2] was 2 (15) n (%) and the “Febrile neutropenia, AE any grade” value [2] was 1 (8) n (%). For the same compound, the “Febrile neutropenia, grade ≥3 AE” value [2] was 1 (8) n %, the “Gamma-glutamyltransferase increased, AE any grade” value [2] was 2 (15) n (%) and the “Gamma-glutamyltransferase increased, grade ≥3 AE” value [2] was 0 (0) n %. For the same compound, the “Hypoalbuminemia, AE any grade” value [2] was 0 (0) n (%), the “Hypoalbuminemia, grade ≥3 AE” value [2] was 0 (0) n % and the “Hypophosphatemia, grade ≥3 AE” value [2] was 0 (0) n %. For the same compound, the “Hypotension, AE any grade” value [2] was 5 (38) n (%), the “Leukopenia, AE any grade” value [2] was 1 (8) n (%) and the “Leukopenia, grade ≥3 AE” value [2] was 0 (0) n %. The “Lymphocyte count decreased, AE any grade” value [2] was 1 (8) n (%), the “Lymphocyte count decreased, grade ≥3 AE” value [2] was 1 (8) n % and the “Lymphopenia, AE any grade” value [2] was 0 (0) n (%). For the same compound, the “Malaise, AE any grade” value [2] was 2 (15) n (%), the “Nasopharyngitis, AE any grade” value [2] was 0 (0) n (%) and the “Nausea, AE any grade” value [2] was 7 (54) n (%). The “Neutropenia, AE any grade” value [2] was 8 (62) n (%), the “Neutropenia, grade ≥3 AE” value [2] was 8 (62) n % and the “Orthostatic hypotension, AE any grade” value [2] was 3 (23) n (%). The “Platelet count decreased, AE any grade” value [2] was 1 (8) n (%), the “Pruritus, AE any grade” value [2] was 0 (0) n (%) and the “Pyrexia, AE any grade” value [2] was 2 (15) n (%). For the same compound, the “Rash popular, AE any grade” value [2] was 0 (0) n (%), the “Stomatitis, AE any grade” value [2] was 1 (8) n (%) and the “Thrombocytopenia, AE any grade” value [2] was 0 (0) n (%). The “Tumor pain, AE any grade” value [2] was 3 (23) n (%), the “Vomiting, AE any grade” value [2] was 7 (54) n (%) and the “White blood cell count decreased, AE any grade” value [2] was 7 (54) n (%). The “White blood cell count decreased, grade ≥3 AE” value [2] was 4 (31) n %, the “Abdominal pain, AE any grade” value (Total, all schedules N = 80) was 5 (6) n (%) and the “Alopecia, AE any grade” value (Total, all schedules N = 80) was 26 (33) n (%). For the same compound, the “Anemia, AE any grade” value (Total, all schedules N = 80) was 19 (24) n (%), the “Anemia, grade ≥3 AE” value (Total, all schedules N = 80) was 10 (13) n % and the “Arthralgia, AE any grade” value (Total, all schedules N = 80) was 6 (8) n (%). For the same compound, the “Blood creatinine increased, AE any grade” value (Total, all schedules N = 80) was 7 (9) n (%), the “Constipation, AE any grade” value (Total, all schedules N = 80) was 10 (13) n (%) and the “Cough, AE any grade” value (Total, all schedules N = 80) was 3 (4) n (%). For the same compound, the “Decreased appetite, AE any grade” value (Total, all schedules N = 80) was 23 (29) n (%), the “Decreased appetite, grade ≥3 AE” value (Total, all schedules N = 80) was 3 (4) n % and the “Diarrhea, AE any grade” value (Total, all schedules N = 80) was 15 (19) n (%). The “Dry skin, AE any grade” value (Total, all schedules N = 80) was 6 (8) n (%), the “Edema peripheral, AE any grade” value (Total, all schedules N = 80) was 10 (13) n (%) and the “Electrocardiogram QT prolonged, AE any grade” value (Total, all schedules N = 80) was 4 (5) n (%). The “Fall, AE any grade” value (Total, all schedules N = 80) was 4 (5) n (%), the “Fatigue, AE any grade” value (Total, all schedules N = 80) was 12 (15) n (%) and the “Febrile neutropenia, AE any grade” value (Total, all schedules N = 80) was 5 (6) n (%). For the same compound, the “Febrile neutropenia, grade ≥3 AE” value (Total, all schedules N = 80) was 5 (6) n %, the “Gamma-glutamyltransferase increased, AE any grade” value (Total, all schedules N = 80) was 5 (6) n (%) and the “Gamma-glutamyltransferase increased, grade ≥3 AE” value (Total, all schedules N = 80) was 2 (3) n %. For the same compound, the “Hypoalbuminemia, AE any grade” value (Total, all schedules N = 80) was 6 (8) n (%), the “Hypoalbuminemia, grade ≥3 AE” value (Total, all schedules N = 80) was 2 (3) n % and the “Hypophosphatemia, grade ≥3 AE” value (Total, all schedules N = 80) was 2 (3) n %. The “Hypotension, AE any grade” value (Total, all schedules N = 80) was 11 (14) n (%), the “Leukopenia, AE any grade” value (Total, all schedules N = 80) was 19 (24) n (%) and the “Leukopenia, grade ≥3 AE” value (Total, all schedules N = 80) was 11 (14) n %. For the same compound, the “Lymphocyte count decreased, AE any grade” value (Total, all schedules N = 80) was 4 (5) n (%), the “Lymphocyte count decreased, grade ≥3 AE” value (Total, all schedules N = 80) was 2 (3) n % and the “Lymphopenia, AE any grade” value (Total, all schedules N = 80) was 5 (6) n (%). The “Malaise, AE any grade” value (Total, all schedules N = 80) was 11 (14) n (%), the “Nasopharyngitis, AE any grade” value (Total, all schedules N = 80) was 6 (8) n (%) and the “Nausea, AE any grade” value (Total, all schedules N = 80) was 48 (60) n (%). The “Neutropenia, AE any grade” value (Total, all schedules N = 80) was 45 (56) n (%), the “Neutropenia, grade ≥3 AE” value (Total, all schedules N = 80) was 37 (46) n % and the “Orthostatic hypotension, AE any grade” value (Total, all schedules N = 80) was 4 (5) n (%). The “Platelet count decreased, AE any grade” value (Total, all schedules N = 80) was 6 (8) n (%), the “Pruritus, AE any grade” value (Total, all schedules N = 80) was 4 (5) n (%) and the “Pyrexia, AE any grade” value (Total, all schedules N = 80) was 10 (13) n (%). For the same compound, the “Rash popular, AE any grade” value (Total, all schedules N = 80) was 5 (6) n (%), the “Stomatitis, AE any grade” value (Total, all schedules N = 80) was 7 (9) n (%) and the “Thrombocytopenia, AE any grade” value (Total, all schedules N = 80) was 5 (6) n (%). For the same compound, the “Tumor pain, AE any grade” value (Total, all schedules N = 80) was 8 (10) n (%), the “Vomiting, AE any grade” value (Total, all schedules N = 80) was 29 (36) n (%) and the “White blood cell count decreased, AE any grade” value (Total, all schedules N = 80) was 27 (34) n (%). For the same compound, the “White blood cell count decreased, grade ≥3 AE” value (Total, all schedules N = 80) was 12 (15) n %, the “Decrease in CLr (renal effects monitoring)” value (all schedules) was “no clinically relevant decrease” and the “Severity of cardiovascular events” value (all schedules) was “grade 1/2”. The “Alopecia, AE” value (all schedules, N = 80) was 33%, the “Anemia, AE” value (all schedules, N = 80) was 24% and the “Anemia, grade ≥3 AE” value (all schedules, N = 80) was 13%. For the same compound, the “Decreased appetite, AE” value (all schedules, N = 80) was 29%, the “Febrile neutropenia, grade ≥3 AE” value (all schedules, N = 80) was 6% and the “Leukopenia, AE” value (all schedules, N = 80) was 24%. For the same compound, the “Leukopenia, grade ≥3 AE” value (all schedules, N = 80) was 14%, the “Nausea, AE” value (all schedules, N = 80) was 60% and the “Neutropenia, AE” value (all schedules, N = 80) was 56%. The “Neutropenia, grade ≥3 AE” value (all schedules, N = 80) was 46%, the “Patients who discontinued treatment (AEs)” value (all schedules, N = 80) was 4 patients and the “Patients with AEs resulting in dose delays” value (all schedules, N = 80) was 40%. For the same compound, the “Patients with AEs resulting in dose holds” value (all schedules, N = 80) was 45%, the “Patients with AEs resulting in dose reductions” value (all schedules, N = 80) was 31% and the “Vomiting, AE” value (all schedules, N = 80) was 36%. For the same compound, the “White blood cell count decreased, AE” value (all schedules, N = 80) was 34%, the “White blood cell count decreased, grade ≥3 AE” value (all schedules, N = 80) was 15% and the “Patients reporting grade ≥3 AEs” value (all schedules, N = 80, 50 patients) was 63%. For the same compound, the “Patients experiencing AEs” value (all schedules, N = 80, 79 patients) was 99%, the “Patients with AEs resulting in TAK-931 dose modification” value (all schedules, N = 80, Forty-nine patients) was 61% and the “Patients who discontinued treatment (AEs)” value (all schedules, N = 80, Four patients) was 5%. For the same compound, the “Patients with ≥1 serious AE” value (all schedules, N = 80, Twenty-three patients) was 29%, the “Electrocardiogram QT prolonged, cardiovascular event” value [3] was 5% and the “Hypotension, cardiovascular event” value [3] was 14%. For the same compound, the “Orthostatic hypotension, cardiovascular event” value [3] was 5%, the “Decreased appetite, serious AE” value (all schedules, N = 80, n = 3) was 4% and the “Malignant ascites, serious AE” value (all schedules, N = 80, n = 3) was 4%. For the same compound, the “Febrile neutropenia, serious AE” value (all schedules, N = 80, n = 4) was 5% and the “Patients who died during the study” value (all schedules, Two patients, due to disease progression, neither related to TAK-931) was 3%.
